Data taken from PubChem BioAssay AID1963964 (Molecular Pharmacology Branch, DTP, NCI, 2024).

Test system: 997726-040-R-J2-PDC tumor spheroids, viability
Assay: Anticancer human tumor 997726-040-R-J2-PDC patient-derived squamous cell lung carcinoma cell line growth inhibition [PI3K]
Details: spheroids with HUVEC and MSC; for IC50: curve of first compound; for viability, T/C: stronger effect = lower value
Excerpt: Combinatorial screen of targeted agents with the PI3K inhibitors inavolisib, alpelisib, duvelisib, and copanlisib in multi-cell type tumor spheroids
A high-throughput screen of multi-cell type tumor spheroids was designed to identify active combinations of targeted small molecules and PI3K pathway inhibitors. Complex spheroids include a stromal component modeled by human endothelial cells (HUVEC) and fibroblasts modeled by human mesenchymal stem cells (MSCs). The concentration ranges selected for each drug and investigational agent were based upon clinically achievable concentrations if the clinical Cmax of the agent was known.
Compounds. The drugs and investigational agents: inavolisib (NSC800729), alpelisib (NSC765974), duvelisib (NSC772469), copanlisib (NSC816437), ipatasertib (NSC767898), afuresertib (NSC778305), talazoparib (NSC767125), sapanisertib (NSC764658), selumetinib (NSC741078), tovorafenib (DAY101, NSC766906), vemurafenib (NSC761431), ravoxertinib (NSC781343), sotorasib (NSC818433), MRTX1133 (NSC 836407), abemaciclib (NSC 768073), palbociclib (NSC758247), venetoclax (NSC 766270), SY5609 (NSC837396), enzalutamide (NSC755605), and darolutamide (NSC825331), were obtained from the National Cancer Institute (NCI) Developmental Therapeutics Program Chemical Repository. The FDA-approved anticancer drug set is available from the NCI Developmental Therapeutics Program. […] The stock solutions were prepared in dimethyl sulfoxide (DMSO, Sigma-Aldrich, St. Louis, MO, cat. D2650) at 800-fold the tested concentration and stored at -70 degrees C prior to their use. All drugs and investigational agents were tested over a range starting from a high concentration at or near the clinical Cmax and decreasing in half-log increments. If the clinical Cmax for an agent had not been determined, the highest concentration tested was 10 microM.
Cell Culture. All cells were maintained in an incubator at 37 degrees C and 5% CO2 with 95% humidity. The PDC lines were cultured according to standard operating procedures established by the NCI PDMR (https://pdmr.cancer.gov/sops/default.htm). All PDCs were thawed and cultured in Matrigel-coated flasks prepared with a working solution of 1X Ham's F-12 nutrient mix, without supplementation (Invitrogen, Waltham, MA, cat. 11765054), 100 U/mL penicillin-streptomycin (Invitrogen, cat. 15140122), and 2.5% Matrigel (Corning Inc., Corning, NY, cat. 354248) for the first three passages. The 354836-022-R-J1-PDC, 475296-252-R-J1-PDC, and 997726-040-R-J2-PDC lines were cultured in 6A media, which includes advanced DMEM/F-12 (Thermo Fisher Scientific, cat. 12634028), 10 mM HEPES (Thermo Fisher Scientific, cat. 15630080), 1X GlutaMAX supplement (Thermo Fisher Scientific, cat. 35050061), 0.1 mg/mL primocin (InvivoGen, San Diego, CA, cat. ant-pm-2), 10% defined fetal bovine serum, heat inactivated (HyClone Laboratories Inc., Logan, UT, cat. SH30070.03HI), 50% L-WRN conditioned media (ATCC, cat. CRL-3276), 1.25 mM N-Acetyl-L-cysteine (Sigma-Aldrich, cat. A9165), 10 mM nicotinamide (Sigma-Aldrich, cat. N0636), 1X B-27 supplement (Thermo Fisher Scientific, cat. 17504044), 1X N-2 supplement (Thermo Fisher Scientific, cat. 17502048), and 10 microM Y-27632 dihydrochloride (Tocris Bioscience, Bristol, United Kingdom, cat. 1254). The 624824-186-R-J2-PDC line was cultured in 6C/Colon 1B media, which includes all 6A media components plus 50 ng/mL human EGF recombinant protein (Thermo Fisher Scientific, cat. PHG0311). […]
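Further: spheroids exposed to compounds for seven days before readout.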

Cn1ncc(Cl)c1-c1cc(C(=O)NC(CN)Cc2cccc(F)c2)sc1Cl (configuration not stated) + Cc1nc(NC(=O)N2CCCC2C(N)=O)sc1-c1ccnc(C(C)(C)C(F)(F)F)c1 was tested, and the IC50 (second compound 0.0316 µM) was 96.7 nM, the IC50 (second compound 0.1 µM) was 77.4 nM and the IC50 (second compound 0.316 µM) was 32.1 nM. For the same molecule, the IC50 (second compound 1 µM) was under 31.6 nM, the IC50 (second compound 3.16 µM) was under 31.6 nM and the IC50 (second compound 10 µM) was under 31.6 nM. For the same molecule, the viability, T/C (second compound 0.0316 µM, first compound 0.0316 µM) was 68%, the viability, T/C (second compound 0.0316 µM, first compound 0.1 µM) was 49.7% and the viability, T/C (second compound 0.0316 µM, first compound 0.316 µM) was 23.7%. The viability, T/C (second compound 0.0316 µM, first compound 1 µM) was 11.6%, the viability, T/C (second compound 0.0316 µM, first compound 3.16 µM) was 9.66% and the viability, T/C (second compound 0.0316 µM, first compound 10 µM) was 5.52%. For the same molecule, the viability, T/C (second compound 0.1 µM, first compound 0.0316 µM) was 65.4%, the viability, T/C (second compound 0.1 µM, first compound 0.1 µM) was 45.7% and the viability, T/C (second compound 0.1 µM, first compound 0.316 µM) was 25%. It also gave a viability, T/C (second compound 0.1 µM, first compound 1 µM) of 13%, a viability, T/C (second compound 0.1 µM, first compound 3.16 µM) of 9.73% and a viability, T/C (second compound 0.1 µM, first compound 10 µM) of 6.2%. For the same molecule, the viability, T/C (second compound 0.316 µM, first compound 0.0316 µM) was 50%, the viability, T/C (second compound 0.316 µM, first compound 0.1 µM) was 37.7% and the viability, T/C (second compound 0.316 µM, first compound 0.316 µM) was 22.5%. For the same molecule, the viability, T/C (second compound 0.316 µM, first compound 1 µM) was 11.7%, the viability, T/C (second compound 0.316 µM, first compound 3.16 µM) was 9.53% and the viability, T/C (second compound 0.316 µM, first compound 10 µM) was 3.13%. The viability, T/C (second compound 1 µM, first compound 0.0316 µM) was 39.9%, the viability, T/C (second compound 1 µM, first compound 0.1 µM) was 35.2% and the viability, T/C (second compound 1 µM, first compound 0.316 µM) was 21.6%. For the same molecule, the viability, T/C (second compound 1 µM, first compound 1 µM) was 11.3%, the viability, T/C (second compound 1 µM, first compound 3.16 µM) was 8.3% and the viability, T/C (second compound 1 µM, first compound 10 µM) was 2.53%. The viability, T/C (second compound 3.16 µM, first compound 0.0316 µM) was 25.3%, the viability, T/C (second compound 3.16 µM, first compound 0.1 µM) was 22.5% and the viability, T/C (second compound 3.16 µM, first compound 0.316 µM) was 13.9%. The viability, T/C (second compound 3.16 µM, first compound 1 µM) was 10%, the viability, T/C (second compound 3.16 µM, first compound 3.16 µM) was 6.18% and the viability, T/C (second compound 3.16 µM, first compound 10 µM) was 1.9%. It also gave a viability, T/C (second compound 10 µM, first compound 0.0316 µM) of 15%, a viability, T/C (second compound 10 µM, first compound 0.1 µM) of 11.3% and a viability, T/C (second compound 10 µM, first compound 0.316 µM) of 7.08%. The viability, T/C (second compound 10 µM, first compound 1 µM) was 4.6%, the viability, T/C (second compound 10 µM, first compound 3.16 µM) was 3.71% and the viability, T/C (second compound 10 µM, first compound 10 µM) was 1.05%.
